In patent US12077503B2, “Substituted cyclic amides and their use as herbicides” (FMC CORPORATION, priority 2015, dated 2024):
Read-outs that look alike come from different tables or passages of the source.

Assays:
Assay type in all cases: in vivo
[1] = system: blackgrass (Alopecurus myosuroides); test: Test A postemergence; settings: Alopecurus myosuroides, post-emergence, 240 h; for pest or weed control at 125 g/ha: 125 g ai/ha, read-out: Blackgrass plant response rating (0 to 100 scale); for pest or weed control at 500 g/ha: 500 g ai/ha
Summary of the method: (§1)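 Compounds were formulated in a non-phytotoxic solvent mixture with surfactant and applied as a preemergence directed soil spray after seeding, or sprayed postemergence over plants 2 to 10 cm tall at the one- to two-leaf stage. Evaluation after about 10 d compared treated with untreated controls, using a scale from 0 (no effect) to 100 (complete control).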

[2] = system: giant foxtail (Setaria faberii); test: Test A postemergence; settings: Setaria faberi, post-emergence, 240 h; for pest or weed control at 125 g/ha: 125 g ai/ha, read-out: Foxtail, Giant plant response rating (0 to 100 scale); for pest or weed control at 500 g/ha: 500 g ai/ha
Summary of the method: as §1

[3] = system: wheat (Triticum aestivum); test: Test A postemergence; settings: Triticum aestivum, post-emergence, 240 h; for plant injury at 125 g/ha: 125 g ai/ha, read-out: Wheat plant response rating (0 to 100 scale); for plant injury at 500 g/ha: 500 g ai/ha
Summary of the method: as §1

[4] = system: pigweed (Amaranthus retroflexus); test: Test A postemergence; settings: Amaranthus retroflexus, post-emergence, 240 h; for pest or weed control at 125 g/ha: 125 g ai/ha, read-out: Pigweed plant response rating (0 to 100 scale); for pest or weed control at 500 g/ha: 500 g ai/ha
Summary of the method: as §1

[5] = system: ryegrass, Italian (Italian ryegrass, Lolium multiflorum); test: Test A postemergence; settings: Lolium multiflorum, post-emergence, 240 h; for pest or weed control at 125 g/ha: 125 g ai/ha, read-out: Ryegrass, Italian plant response rating (0 to 100 scale); for pest or weed control at 500 g/ha: 500 g ai/ha
Summary of the method: as §1

[6] = system: Kochia (Kochia scoparia); test: Test A preemergence; settings: Bassia scoparia, pre-emergence, 240 h; for pest or weed control at 500 g/ha: 500 g ai/ha; for pest or weed control at 125 g/ha: 125 g ai/ha
Summary of the method: as §1

[7] = system: giant foxtail (Setaria faberii); test: Test A preemergence; settings: Setaria faberi, pre-emergence, 240 h; for pest or weed control at 500 g/ha: 500 g ai/ha; for pest or weed control at 125 g/ha: 125 g ai/ha
Summary of the method: as §1

[8] = system: ragweed (common ragweed, Ambrosia elatior); test: Test A preemergence; settings: Ambrosia artemisiifolia, pre-emergence, 240 h; for pest or weed control at 500 g/ha: 500 g ai/ha; for pest or weed control at 125 g/ha: 125 g ai/ha
Summary of the method: as §1

[9] = system: pigweed (Amaranthus retroflexus); test: Test A preemergence; settings: Amaranthus retroflexus, pre-emergence, 240 h; for pest or weed control at 500 g/ha: 500 g ai/ha; for pest or weed control at 125 g/ha: 125 g ai/ha
[10] = system: barnyardgrass (Echinochloa crus-galli); test: Test A preemergence; settings: Echinochloa crus-galli, pre-emergence, 240 h; for pest or weed control at 500 g/ha: 500 g ai/ha; for pest or weed control at 125 g/ha: 125 g ai/ha
Summary of the method: as §1

[11] = system: ryegrass, Italian (Italian ryegrass, Lolium multiflorum); test: Test A preemergence; settings: Lolium multiflorum, pre-emergence, 240 h; for pest or weed control at 500 g/ha: 500 g ai/ha; for pest or weed control at 125 g/ha: 125 g ai/ha
Summary of the method: as §1

[12] = system: ducksalad (Heteranthera limosa); test: Test B flooded paddy test; settings: Heteranthera limosa, 250 g ai/ha, Flood; 0 to 100 scale where 0 is no effect and 100 is complete control; read-out: Ducksalad plant response rating
Summary of the method: (§2)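 Plants at 2-leaf stage flooded to 3 cm above soil, with compounds applied directly to paddy water and that depth maintained. Plants kept in greenhouse 13–15 d. Visual rating versus controls on a 0 (no effect) to 100 (complete control) scale.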

[13] = system: sedge, umbrella (small-flower umbrella sedge, Cyperus difformis); test: Test B flooded paddy test; settings: Cyperus difformis, 250 g ai/ha, Flood; 0 to 100 scale where 0 is no effect and 100 is complete control; read-out: Sedge, Umbrella plant response rating
Summary of the method: as §2

[14] = system: rice (Oryra sativa); test: Test B flooded paddy test; settings: Oryza sativa, 250 g ai/ha, Flood; 0 to 100 scale where 0 is no effect and 100 is complete control; read-out: Rice plant response rating
Summary of the method: as §2

[15] = system: barnyardgrass (Echinochloa crus-galli); test: Test B flooded paddy test; settings: Echinochloa crus-galli, 250 g ai/ha, Flood; 0 to 100 scale where 0 is no effect and 100 is complete control; read-out: Barnyardgrass plant response rating
Summary of the method: as §2

[16] = Postemergence, visual rating about 10 d after treatment
[17] = Postemergence, visual injury, 0 to 100 scale (0 no effect, 100 complete control), approx. 10 d, read-out: Plant response rating, Blackgrass
[18] = Postemergence, visual injury, 0 to 100 scale (0 no effect, 100 complete control), approx. 10 d, read-out: Plant response rating, Foxtail, Giant
[19] = Postemergence, visual injury, 0 to 100 scale (0 no effect, 100 complete control), approx. 10 d, read-out: Plant response rating, Wheat
[20] = Postemergence, visual injury, 0 to 100 scale (0 no effect, 100 complete control), approx. 10 d, read-out: Plant response rating, Pigweed
[21] = Postemergence, visual injury, 0 to 100 scale (0 no effect, 100 complete control), approx. 10 d, read-out: Plant response rating, Ryegrass, Italian
[22] = preemergence, 0 to 100 scale where 0 is no effect and 100 is complete control, read-out: Kochia plant response rating
[23] = preemergence, 0 to 100 scale where 0 is no effect and 100 is complete control, read-out: Foxtail, Giant plant response rating
[24] = preemergence, 0 to 100 scale where 0 is no effect and 100 is complete control, read-out: Ragweed plant response rating
[25] = preemergence, 0 to 100 scale where 0 is no effect and 100 is complete control, read-out: Pigweed plant response rating
[26] = preemergence, 0 to 100 scale where 0 is no effect and 100 is complete control, read-out: Barnyardgrass plant response rating
[27] = preemergence, 0 to 100 scale where 0 is no effect and 100 is complete control, read-out: Ryegrass, Italian plant response rating
[28] = postemergence, visual injury vs untreated controls after approx. 10 d, 0 = no effect, 100 = complete control
[29] = preemergence, visual injury rating, 0 to 100 scale where 0 is no effect and 100 is complete control, approximately 10 d, read-out: Kochia plant response rating
[30] = preemergence, visual injury rating, 0 to 100 scale where 0 is no effect and 100 is complete control, approximately 10 d, read-out: Foxtail, Giant plant response rating
[31] = preemergence, visual injury rating, 0 to 100 scale where 0 is no effect and 100 is complete control, approximately 10 d, read-out: Ragweed plant response rating
[32] = preemergence, visual injury rating, 0 to 100 scale where 0 is no effect and 100 is complete control, approximately 10 d, read-out: Pigweed plant response rating
[33] = preemergence, visual injury rating, 0 to 100 scale where 0 is no effect and 100 is complete control, approximately 10 d, read-out: Barnyardgrass plant response rating
[34] = preemergence, visual injury rating, 0 to 100 scale where 0 is no effect and 100 is complete control, approximately 10 d, read-out: Ryegrass, Italian plant response rating

Cc1cc(F)cc([C@H]2CNC(=O)[C@@H]2C(=O)Nc2cccc(F)c2F)c1 [Compound 1309]
pest or weed control at 125 g/ha [1, 16]: 0%
pest or weed control at 500 g/ha [1, 17]: 60%
pest or weed control at 125 g/ha [2, 16]: 30%
pest or weed control at 500 g/ha [2, 18]: 70%
plant injury at 125 g/ha [3, 16]: 20%
plant injury at 500 g/ha [3, 19]: 20%
pest or weed control at 125 g/ha [4, 16]: 0%
pest or weed control at 500 g/ha [4, 20]: 0%
pest or weed control at 125 g/ha [5, 16]: 0%
pest or weed control at 500 g/ha [5, 21]: 20%
pest or weed control at 500 g/ha [6, 22]: 60%
pest or weed control at 125 g/ha ([6]; Preemergence, 0 to 100 scale (0 no effect, 100 complete control), read-out: Plant response rating, Kochia): 60%
pest or weed control at 500 g/ha [7, 23]: 90%
pest or weed control at 125 g/ha ([7]; Preemergence, 0 to 100 scale (0 no effect, 100 complete control), read-out: Plant response rating, Foxtail, Giant): 80%
pest or weed control at 500 g/ha [8, 24]: 50%
pest or weed control at 125 g/ha ([8]; Preemergence, 0 to 100 scale (0 no effect, 100 complete control), read-out: Plant response rating, Ragweed): 40%
pest or weed control at 500 g/ha [9, 25]: 20%
pest or weed control at 125 g/ha ([9]; Preemergence, 0 to 100 scale (0 no effect, 100 complete control), read-out: Plant response rating, Pigweed): 0%
pest or weed control at 500 g/ha [10, 26]: 90%
pest or weed control at 125 g/ha ([10]; Preemergence, 0 to 100 scale (0 no effect, 100 complete control), read-out: Plant response rating, Barnyardgrass): 90%
pest or weed control at 500 g/ha [11, 27]: 20%
pest or weed control at 125 g/ha ([11]; Preemergence, 0 to 100 scale (0 no effect, 100 complete control), read-out: Plant response rating, Ryegrass, Italian): 0%
pest or weed control at 250 g/ha [12]: 100%
pest or weed control at 250 g/ha [13]: 0%
pest or weed control at 250 g/ha [14]: 20%
pest or weed control at 250 g/ha [15]: 60%

Cc1ccc([C@H]2CCN(C)C(=O)[C@@H]2C(=O)Nc2ccccc2C(F)(F)F)cc1 [Compound 1219]
pest or weed control at 125 g/ha [1, 28]: 0%
pest or weed control at 500 g/ha ([1]; postemergence, 0 to 100 scale, 0 is no effect, 100 is complete control, read-out: Blackgrass plant response rating): 0%
pest or weed control at 125 g/ha [2, 28]: 50%
pest or weed control at 500 g/ha ([2]; postemergence, 0 to 100 scale, 0 is no effect, 100 is complete control, read-out: Foxtail, Giant plant response rating): 80%
plant injury at 125 g/ha [3, 28]: 0%
plant injury at 500 g/ha ([3]; postemergence, 0 to 100 scale, 0 is no effect, 100 is complete control, read-out: Wheat plant response rating): 0%
pest or weed control at 125 g/ha [4, 28]: 0%
pest or weed control at 500 g/ha ([4]; postemergence, 0 to 100 scale, 0 is no effect, 100 is complete control, read-out: Pigweed plant response rating): 0%
pest or weed control at 125 g/ha [5, 28]: 0%
pest or weed control at 500 g/ha ([5]; postemergence, 0 to 100 scale, 0 is no effect, 100 is complete control, read-out: Ryegrass, Italian plant response rating): 20%
pest or weed control at 125 g/ha [6, 29]: 0%
pest or weed control at 500 g/ha [6, 22]: 0%
pest or weed control at 125 g/ha [7, 30]: 80%
pest or weed control at 500 g/ha [7, 23]: 90%
pest or weed control at 125 g/ha [8, 31]: 0%
pest or weed control at 500 g/ha [8, 24]: 0%
pest or weed control at 125 g/ha [9, 32]: 0%
pest or weed control at 500 g/ha [9, 25]: 0%
pest or weed control at 125 g/ha [10, 33]: 70%
pest or weed control at 500 g/ha [10, 26]: 90%
pest or weed control at 125 g/ha [11, 34]: 0%
pest or weed control at 500 g/ha [11, 27]: 0%
pest or weed control at 250 g/ha [12]: 60%
pest or weed control at 250 g/ha [13]: 40%
pest or weed control at 250 g/ha [14]: 0%
pest or weed control at 250 g/ha [15]: 0%

Cc1nc([C@H]2CN(C)C(=O)[C@@H]2C(=O)Nc2ccccc2F)cs1 [Compound 1280]
pest or weed control at 125 g/ha [1, 16]: 0%
pest or weed control at 500 g/ha [1, 17]: 0%
pest or weed control at 125 g/ha [2, 16]: 0%
pest or weed control at 500 g/ha [2, 18]: 30%
plant injury at 125 g/ha [3, 16]: 0%
plant injury at 500 g/ha [3, 19]: 0%
pest or weed control at 125 g/ha [4, 16]: 0%
pest or weed control at 500 g/ha [4, 20]: 0%
pest or weed control at 125 g/ha [5, 16]: 0%
pest or weed control at 500 g/ha [5, 21]: 0%
pest or weed control at 125 g/ha [6, 29]: 0%
pest or weed control at 500 g/ha [6, 22]: 0%
pest or weed control at 125 g/ha [7, 30]: 0%
pest or weed control at 500 g/ha [7, 23]: 80%
pest or weed control at 125 g/ha [8, 31]: 0%
pest or weed control at 500 g/ha [8, 24]: 0%
pest or weed control at 125 g/ha [9, 32]: 0%
pest or weed control at 500 g/ha [9, 25]: 30%
pest or weed control at 125 g/ha [10, 33]: 0%
pest or weed control at 500 g/ha [10, 26]: 50%
pest or weed control at 125 g/ha [11, 34]: 0%
pest or weed control at 500 g/ha [11, 27]: 0%
pest or weed control at 250 g/ha [12]: 0%
pest or weed control at 250 g/ha [13]: 0%
pest or weed control at 250 g/ha [14]: 0%
pest or weed control at 250 g/ha [15]: 0%
